Results: patent US20090068290A1, “BIFEPRUNOX DOSES FOR TREATING SCHIZOPHRENIA” (priority 2006, published 2009)

How the values were obtained:
[1] = test system: patients with chronic schizophrenia; test: PANSS total score, Clinical Study Four; assay type: in vivo, human; details: FAS; for Change from Baseline in PANSS Total Score, Difference to PBO Mean / Adjusted Mean Change from Baseline in PANSS Total Score, Least Squares Estimates Mean / PANSS total, Adjusted Mean Change from Baseline (LS mean): ANCOVA; for PANSS total, Adjusted Mean Change from Baseline (LS mean): BX20 = 20 mg, BX30 = 30 mg
Experimental: (§1) METHODOLOGY: This study was a multinational, multicenter, randomized, double-blind, parallel-group, placebo-controlled, fixed-dose study. The study consisted of a 3- to 6-day antipsychotic-free run-in period, after which patients were randomised to 6 months of double-blind treatment with fixed doses of bifeprunox (20 mg/day (BX20) or 30 mg/day (BX30)) or placebo (PBO). Patients allocated to the BX groups were up-titrated from 0.25 mg/day over 7 days (BX20) or 8 days (BX30), and then continued on these doses for the remainder of the study. […] At predetermined time points, blood samples were obtained for drug concentration analysis of BX and its major metabolites (3′- and 4′-sulfate conjugates of BX), and pharmaco-economic assessments were performed.

[2] = test system: patients with chronic schizophrenia; test: PANSS negative subscale score, Clinical Study Four; assay type: in vivo, human; details: FAS, ANCOVA; for PANSS negative subscale, Adjusted Mean Change from Baseline (LS mean): LOCF; for mean PANSS negative subscale scores versus PBO, per-visit LOCF analysis: both BX doses
Experimental: as §1

[3] = test system: serum proteins; test: Binding to serum proteins

Compound: O=c1[nH]c2cccc(N3CCN(Cc4cccc(-c5ccccc5)c4)CC3)c2o1 [Bifeprunox, 7-[4-([1,1′-biphenyl]-3-ylmethyl)-1-piperazinyl]-2(3H)-benzoxazolone]
- Change from Baseline in PANSS Total Score, Difference to PBO Mean ([1]; Day 63, OC, listed as BX20): −4.52
- Adjusted Mean Change from Baseline in PANSS Total Score, Least Squares Estimates Mean ([1]; Day 63, OC, listed as BX30): −12.45
- Change from Baseline in PANSS Total Score, Difference to PBO Mean ([1]; Day 63, OC, listed as BX30): −4.12
- Adjusted Mean Change from Baseline in PANSS Total Score, Least Squares Estimates Mean ([1]; Day 63, POCF, listed as BX20): −10.03
- Change from Baseline in PANSS Total Score, Difference to PBO Mean ([1]; Day 63, POCF, listed as BX20): −4.83
- Adjusted Mean Change from Baseline in PANSS Total Score, Least Squares Estimates Mean ([1]; Day 63, POCF, listed as BX30): −8.97
- Change from Baseline in PANSS Total Score, Difference to PBO Mean ([1]; Day 63, POCF, listed as BX30): −3.77
- Adjusted Mean Change from Baseline in PANSS Total Score, Least Squares Estimates Mean ([1]; Day 90, LOCF, listed as BX20): −2.18
- Change from Baseline in PANSS Total Score, Difference to PBO Mean ([1]; Day 90, LOCF, listed as BX20): −5.85
- Adjusted Mean Change from Baseline in PANSS Total Score, Least Squares Estimates Mean ([1]; Day 90, LOCF, listed as BX30): −1.47
- Change from Baseline in PANSS Total Score, Difference to PBO Mean ([1]; Day 90, LOCF, listed as BX30): −5.14
- Adjusted Mean Change from Baseline in PANSS Total Score, Least Squares Estimates Mean ([1]; Day 90, OC, listed as BX20): −14.17
- Change from Baseline in PANSS Total Score, Difference to PBO Mean ([1]; Day 90, OC, listed as BX20): −4.92
- Adjusted Mean Change from Baseline in PANSS Total Score, Least Squares Estimates Mean ([1]; Day 90, OC, listed as BX30): −12.71
- Change from Baseline in PANSS Total Score, Difference to PBO Mean ([1]; Day 90, OC, listed as BX30): −3.46
- Adjusted Mean Change from Baseline in PANSS Total Score, Least Squares Estimates Mean ([1]; Day 90, POCF, listed as BX20): −10.43
- Change from Baseline in PANSS Total Score, Difference to PBO Mean ([1]; Day 90, POCF, listed as BX20): −5.19
- Adjusted Mean Change from Baseline in PANSS Total Score, Least Squares Estimates Mean ([1]; Day 90, POCF, listed as BX30): −9.25
- Change from Baseline in PANSS Total Score, Difference to PBO Mean ([1]; Day 90, POCF, listed as BX30): −4.00
- Adjusted Mean Change from Baseline in PANSS Total Score, Least Squares Estimates Mean ([1]; Day 120, LOCF, listed as BX20): −1.20
- Change from Baseline in PANSS Total Score, Difference to PBO Mean ([1]; Day 120, LOCF, listed as BX20): −6.50
- Adjusted Mean Change from Baseline in PANSS Total Score, Least Squares Estimates Mean ([1]; Day 120, LOCF, listed as BX30): −0.84
- Change from Baseline in PANSS Total Score, Difference to PBO Mean ([1]; Day 120, LOCF, listed as BX30): −6.14
- Adjusted Mean Change from Baseline in PANSS Total Score, Least Squares Estimates Mean ([1]; Day 120, OC, listed as BX20): −15.81
- Change from Baseline in PANSS Total Score, Difference to PBO Mean ([1]; Day 120, OC, listed as BX20): −5.45
- Adjusted Mean Change from Baseline in PANSS Total Score, Least Squares Estimates Mean ([1]; Day 120, OC, listed as BX30): −14.56
- Change from Baseline in PANSS Total Score, Difference to PBO Mean ([1]; Day 120, OC, listed as BX30): −4.19
- Adjusted Mean Change from Baseline in PANSS Total Score, Least Squares Estimates Mean ([1]; Day 120, POCF, listed as BX20): −10.30
- Change from Baseline in PANSS Total Score, Difference to PBO Mean ([1]; Day 120, POCF, listed as BX20): −5.21
- Adjusted Mean Change from Baseline in PANSS Total Score, Least Squares Estimates Mean ([1]; Day 120, POCF, listed as BX30): −9.68
- Change from Baseline in PANSS Total Score, Difference to PBO Mean ([1]; Day 120, POCF, listed as BX30): −4.59
- Adjusted Mean Change from Baseline in PANSS Total Score, Least Squares Estimates Mean ([1]; Day 150, LOCF, listed as BX20): −0.56
- Change from Baseline in PANSS Total Score, Difference to PBO Mean ([1]; Day 150, LOCF, listed as BX20): −7.04
- Adjusted Mean Change from Baseline in PANSS Total Score, Least Squares Estimates Mean ([1]; Day 150, LOCF, listed as BX30): −0.31
- Change from Baseline in PANSS Total Score, Difference to PBO Mean ([1]; Day 150, LOCF, listed as BX30): −6.80
- Adjusted Mean Change from Baseline in PANSS Total Score, Least Squares Estimates Mean ([1]; Day 150, OC, listed as BX20): −16.36
- Change from Baseline in PANSS Total Score, Difference to PBO Mean ([1]; Day 150, OC, listed as BX20): −1.97
- Adjusted Mean Change from Baseline in PANSS Total Score, Least Squares Estimates Mean ([1]; Day 150, OC, listed as BX30): −15.93
- Change from Baseline in PANSS Total Score, Difference to PBO Mean ([1]; Day 150, OC, listed as BX30): −1.54
- Adjusted Mean Change from Baseline in PANSS Total Score, Least Squares Estimates Mean ([1]; Day 150, POCF, listed as BX20): −10.40
- Change from Baseline in PANSS Total Score, Difference to PBO Mean ([1]; Day 150, POCF, listed as BX20): −5.20
- Adjusted Mean Change from Baseline in PANSS Total Score, Least Squares Estimates Mean ([1]; Day 150, POCF, listed as BX30): −9.55
- Change from Baseline in PANSS Total Score, Difference to PBO Mean ([1]; Day 150, POCF, listed as BX30): −4.35
- Adjusted Mean Change from Baseline in PANSS Total Score, Least Squares Estimates Mean ([1]; Day 180, LOCF, listed as BX20): −0.81
- Change from Baseline in PANSS Total Score, Difference to PBO Mean ([1]; Day 180, LOCF, listed as BX20): −7.91
- Adjusted Mean Change from Baseline in PANSS Total Score, Least Squares Estimates Mean ([1]; Day 180, LOCF, listed as BX30): −0.44
- Change from Baseline in PANSS Total Score, Difference to PBO Mean ([1]; Day 180, LOCF, listed as BX30): −7.54
- Adjusted Mean Change from Baseline in PANSS Total Score, Least Squares Estimates Mean ([1]; Day 180, OC, listed as BX20): −18.09
- Change from Baseline in PANSS Total Score, Difference to PBO Mean ([1]; Day 180, OC, listed as BX20): −3.60
- Adjusted Mean Change from Baseline in PANSS Total Score, Least Squares Estimates Mean ([1]; Day 180, OC, listed as BX30): −18.58
- Change from Baseline in PANSS Total Score, Difference to PBO Mean ([1]; Day 180, OC, listed as BX30): −4.09
- Adjusted Mean Change from Baseline in PANSS Total Score, Least Squares Estimates Mean ([1]; Day 180, POCF, listed as BX20): −10.84
- Change from Baseline in PANSS Total Score, Difference to PBO Mean ([1]; Day 180, POCF, listed as BX20): −5.43
- Adjusted Mean Change from Baseline in PANSS Total Score, Least Squares Estimates Mean ([1]; Day 180, POCF, listed as BX30): −9.92
- Change from Baseline in PANSS Total Score, Difference to PBO Mean ([1]; Day 180, POCF, listed as BX30): −4.52
- PANSS total, Adjusted Mean Change from Baseline (LS mean) ([1]; Month 6, LOCF, listed as BX20): −4.0
- PANSS total, Adjusted Mean Change from Baseline (LS mean) ([1]; Month 6, LOCF, listed as BX30): −0.4
- PANSS total, Adjusted Mean Change from Baseline (LS mean) ([1]; Week 6, LOCF, listed as BX20): −4.0
- PANSS total, Adjusted Mean Change from Baseline (LS mean) ([1]; Week 6, LOCF, listed as BX30): −2.6
- PANSS total scores versus PBO, LOCF analysis ([1]; both BX groups): statistically significantly superior to that in the PBO group from Week 6 onwards
- PANSS negative subscale, Adjusted Mean Change from Baseline (LS mean) ([2]; Month 6, listed as BX20): −1.6
- PANSS negative subscale, Adjusted Mean Change from Baseline (LS mean) ([2]; Month 6, listed as BX30): −1.7
- PANSS negative subscale, Adjusted Mean Change from Baseline (LS mean) ([2]; Week 6, listed as BX20): −2.0
- PANSS negative subscale, Adjusted Mean Change from Baseline (LS mean) ([2]; Week 6, listed as BX30): −1.6
- mean PANSS negative subscale scores versus PBO, per-visit LOCF analysis ([2]; listed as BX): statistically significantly superior to that with PBO at all time points, except at Weeks 2 and 4 for the BX30 group
- mean PANSS negative subscale scores versus PBO, per-visit LOCF analysis ([2]; listed as BX20): statistically significantly superior to that with PBO at all time points, except at Weeks 2 and 4 for BX30
- bound to serum proteins [3]: approximately 99%
